In patent US10919785B2, “Hydraulic conveyor of floating objects provided with a device for sanitising conveying composition, plant provided with such a conveyor and sanitising method” (MAF AGROBOTIC, priority 2016, dated 2021):

Assay: Example 6: pilot device, degradation of different amounts of boscalid (FIG. 7)
Format: physicochemical
Conditions: boscalid 25, 80 and 200 μg/l; hydrogen peroxide 2 mg/l continuously added; 6 m^3/h
Description: A semi-industrial pilot device in accordance with one aspect of the invention comprises a tank for recirculating water to be treated of a volume of 1000 l, a circulation pump ensuring a circulation flow of the water to be treated in a sanitising device with a flow rate between 4 m^3 to 8 m^3/h. The sanitising device comprises a photolysis chamber comprising an inlet for water from the recirculation tank and an outlet for sanitised water directed to the recirculation tank. The photolysis chamber is formed of a rigid tubular envelope, of which the external wall is opaque to light and forming an inner space suitable for receiving five fluorescent tubes with a longitudinal axis extending in parallel with the longitudinal axis of the rigid tubular envelope. The inner volume of the decontamination reactor is in the order of […].
The five fluorescent tubes are tubes of 200 W emitting light at a wavelength of 254 nm and arranged longitudinally in the tubular envelope at the five points of a regular pentagon and in contact with the water to be treated flowing in the photolysis chamber. In this configuration of the sanitising device, the water to be sanitised flowing in contact with the five fluorescent tubes is subjected to substantially homogeneous illumination in the order of 500 mJ/cm^2 for a circulation flow rate of water to be sanitised in the order of 6 m^3/h. […]

For `O=C(Nc1ccccc1-c1ccc(Cl)cc1)c1cccnc1Cl` [boscalid], the “residual amount of boscalid” value was “less than 80%”.
